Patent US9023788B2, “Methods compounds and pharmaceutical compositions for treating anxiety and mood disorders” (New York University, priority 2010, dated 2015)
Like-named read-outs stand apart in the source and are kept apart here. Marks after values point to notes of the source that are not given here.

Experiments:
Swiss Webster male mice [1] = experiment: Tail suspension test; format: in vivo, mouse; settings: for effect of coinfused antagonist on anti-immobility effect of 6FNE: 6FNE 3 nmoles + antagonist 1 nmole ivt.; for effect of antagonist alone on immobility (antagonist+vehicle versus vehicle-only): antagonist 1 nmole ivt.; for immobility versus vehicle: acute ivt. 6FNE or DEX, DMI subacute i.p. 10 mg/kg, 10 mg/kg
Method: (§2) In experiment on chronic administration, a daily dose of 0.5 mg/kg in the same vehicle was administered for 11 d.
(§3) Infusion procedure. All experiments were performed between 1000 and 1400 hr. […] A total of 350 n1 of solution was infused at 100 nl/min over a 3.5 min period with the cannula remaining in place for 30 seconds after infusion. The animal was then subjected to the behavioral tests described below making the interval between the start of infusion and start of behavioral test 4.5-5 min. […] All drugs were prepared freshly each day in saline.
Tail suspension test: The procedure of Stem, et al., Psychopharmacology 1985; 85: 367-370 was used. Immediately following intraventricular infusion or 30 min after the third i.p. injection, the animals were taped by the tail 72 cm above a padded platform for 6 min during which time they were videorecorded. Disks were subsequently rated blind as above for times immobile during the last 4 min of the test.

α2-adrenoceptors [2] = settings: atipamezole 0.5 mg/kg; cited from earlier work
α2-adrenoceptors [3] = settings: cited from earlier work
Swiss Webster male mice [4] = experiment: Repeated open space forced swim (RFS) test; settings: for overall effect of antagonist pretreatment on distance swum / overall effect of antagonist pretreatment on immobility: prazosin 5 mg/kg or atipamezole 0.5 mg/kg i.p.
Method: as §2, §3
In this procedure, mice are swum for 15-20 min/d for 4 d in rat tub cages (24×43×23 cm, w×h×l) filled with 13 cm high luke-warm water (32-34° C.) and thereafter once or twice a week. […] In the present experiment, the animals were matched on immobility level of the 4th swim into vehicle and drug groups and infused ivt. just prior to the 5th swim. Groups given i.p. injections were dosed initially 5 min after the 4th swim and finally 30 min prior to the 5th swim. Discs were rated as above on immobility and distance swum (number of quadrants entered).

handling-stressed mice = experiment: Home cage activity after handling and injection stress; format: in vivo, mouse; settings: acute i.p. dp6FNE 1 mg/kg in the presence of phentolamine; cirazoline 0.1 mg/kg; FIG. 3
Method: FIG. 3 depicts the effect of acute i.p. dp6FNE (1 mg/kg) or cirazoline (0.1 mg/kg), (both N=1), on home cage activity in terms of rearing and ambulation, Veh (N=12).
It is known that peripheral administration of α1-agonists without phentolamine impairs exploratory behavior in the open field (Yang, et al., J Pharmacol exp Ther 1990; 255: 1064-1070).

mice [5] = settings: months of chronic treatment (Doze et al. 2009); cited from earlier work
mice [6] = settings: months of chronic treatment (Doze et al. 2009); cited from earlier work; remark: listed apart in the source
brain α-adrenoceptors = settings: cited from earlier work
mice [7] = settings: given chronically in the drinking water; cited from earlier work
Swiss Webster male mice [8] = experiment: Open field motor activity and anxiety (i.p. dp6FNE/prazosin); format: in vivo, mouse; settings: 1 h; dp6FNE 0.1-3 mg/kg/prazosin; amphetamine 2 mg/kg i.p.
Method: For purposes of comparison, some animals received instead d-amphetamine, 2 mg/kg, i.p. Total quadrants entered and time in the center area of the field as a ratio to the total distance traveled were rated from videorecordings.

[9] = Chronic mild stress (CMS)-anhedonia model, sweetened milk consumption; format: in vivo; settings: FIG. 5
From the text: The latter property may actually be beneficial as it would counter the weight gain frequently reported with antidepressant treatment (Richelson, Mayo Clin Proc 2001; 76: 511-527).

Swiss Webster male mice [10] = experiment: Observation for sedation and signs of toxicity; format: in vivo, mouse
From the text: Sedation interferes with behavioral performance and is therefore a detrimental side effect to the treatment of major depressive illness in humans.
Although dp6FNE was designed to be a temporary treatment, it was of interest to determine how long it would remain effective if given repeatedly.

mice [11] = experiment: Light/dark box test; format: in vivo, mouse; settings: dp6FNE 0, 1, 3, 10 mg/kg i.p. plus phentolamine 1 mg/kg; Example 6, expected
Method: (§1) To verify that dp6FNE has anxiolytic effects this agent is tested in both the light/dark box (Shimada, et al., Gen Pharmac 1995; 26: 205-210) and elevated plus-maze (Pellow, et al., J Neurosci Methods 1985; 14: 149-167). […] For the plus-maze, the animal is placed in the center section of the maze and videotaped to determine both number of entries and time spent in the open and closed arms of the maze.

mice [12] = experiment: Elevated plus-maze test; format: in vivo, mouse; settings: dp6FNE 0, 1, 3, 10 mg/kg i.p. plus phentolamine 1 mg/kg; Example 6, expected
Method: as §1

[13] = in vivo; cited from earlier work
[14] = system: cortical α1-adrenoceptors; settings: prazosin 5 mg/kg; cited from earlier work
LC α1-adrenoceptors = experiment: Novel cage test after LC microinjection; format: in vivo, rat; settings: for Gross movements: 15 min novel cage
[15] = system: Fos expression in LC, PVH, lateral septal nucleus and NAC; settings: stimulation or blockade of LC α1-receptors (Stone et al. 2011); cited from earlier work
α1-adrenoceptors = settings: cited from earlier work
[16] = Outside LC (n = 23), 3 nmoles/side
[17] = Within LC (n = 25), 3 nmoles/side
[18] = entire within LC group vs vehicle, 3 nmoles/side

**Q.** Which “effect of coinfused antagonist on anti-immobility effect of 6FNE” value (Swiss Webster male mice [1]) does the source give for `CCC1(c2cnc[nH]2)Cc2ccccc2C1` [atipamezole] here?
**A.** totally abolished the effect of 6FNE

**Q.** And the “effect of antagonist alone on immobility (antagonist+vehicle versus vehicle-only)” value (Swiss Webster male mice [1])?
**A.** had no effect in this group

**Q.** And the “blockade of sedative and hypothermic effects of a low dose of dexmedetomidine” value (α2-adrenoceptors [2])?
**A.** approximately 70%

**Q.** And the “affinity for respective receptor” value (α2-adrenoceptors [3])?
**A.** low nanomolar affinities

**Q.** And the “overall effect of antagonist pretreatment on distance swum” value (Swiss Webster male mice [4])?
**A.** no significant overall action

**Q.** What about the “overall effect of antagonist pretreatment on immobility” value (Swiss Webster male mice [4]) of the same molecule?
**A.** no significant overall effect

**Q.** Which results are given for `c1ccc(C2CC2)c(OCC2=NCCN2)c1` [cirazoline]?
**A.** home cage exploration / behavioral inhibition after handling and injection stress (handling-stressed mice): not effective in reducing behavioral inhibition; anxiety measured by behavioral inhibition (mice [5]): failed to affect anxiety; anxiety measured by behavioral inhibition (mice [6]): failed to affect anxiety; agonist efficacy (brain α-adrenoceptors): partial agonists; antidepressant effect (mice [7]): significant antidepressant effects in the forced swim test

**Q.** Which results are given for `Cc1cccc([C@H](C)c2cnc[nH]2)c1C` [dexmedetomidine]?
**A.** immobility versus vehicle (Swiss Webster male mice [1]): equally effective; immobility versus vehicle (Swiss Webster male mice [1]; listed as DEX): significant dose-dependent decrease in immobility; affinity for respective receptor (α2-adrenoceptors [3]): low nanomolar affinities; distance swum versus vehicle (Swiss Webster male mice [4]; 5th swim, acute ivt. 6FNE or DEX, DMI subacute i.p. 10 mg/kg): failed to have an overall significant effect; immobility versus vehicle (Swiss Webster male mice [4]; 5th swim, acute ivt. 6FNE or DEX, DMI subacute i.p. 10 mg/kg, 10 mg/kg): only 6FNE was effective; immobility versus vehicle (Swiss Webster male mice [4]; 5th swim, acute ivt. 6FNE or DEX, DMI subacute i.p. 10 mg/kg, listed as DEX, 10 mg/kg): failed to have an overall significant effect on immobility; immobility at single dose (Swiss Webster male mice [4]; DEX 0.04 nmoles ivt.): borderline significant reduction in immobility

**Q.** Which “antidepressant action in tail suspension test” value (Swiss Webster male mice [1]; i.p. 1, 3 and 10 mg/kg, FIG. 5) does the source give for `CC(C)(C)C(=O)Oc1cc(F)c(C(O)CN)cc1OC(=O)C(C)(C)C` (stereo not drawn) [dp6FNE, Dipivalyl-6-fluoronorepinephrine] here?
**A.** significant antidepressant action

**Q.** What about the “motor activity (quadrants entered)” value (Swiss Webster male mice [8]) of the same molecule?
**A.** little or no effect on locomotor activity

**Q.** And the “relative time in the center of the field” value (Swiss Webster male mice [8])?
**A.** increased time in the center of the field

**Q.** And the “home cage exploration / behavioral inhibition after handling and injection stress” value (handling-stressed mice)?
**A.** same rescue of home cage exploration

**Q.** And the “CMS reduction of sweetened milk intake” value ([9]; acute i.p. dp6FNE with prazosin 0.2 mg/kg)?
**A.** eliminates the CMS reduction of intake

**Q.** What about the hypophagia ([9]; acute i.p. dp6FNE) of the same molecule?
**A.** significant hypophagia

**Q.** And the “signs of toxicity (reduced arousal, disheveled fur coat)” value (Swiss Webster male mice [10]; after repeated treatment, 0.5 mg/kg i.p. 11 daily treatments, no formal measures)?
**A.** no obvious signs of toxicity

**Q.** And the sedation (Swiss Webster male mice [10]; intracerebral 6FNE or peripheral dp6FNE, range of behavioral tests)?
**A.** Sedation has not been observed

**Q.** What about the “time spent in the lighted side” value (mice [11]) of the same molecule?
**A.** increased time spent

**Q.** And the “time spent in the open arms” value (mice [12])?
**A.** increased time spent

**Q.** And the “passage of the blood brain barrier / uptake by the brain” value [13]?
**A.** does pass the blood brain barrier

**Q.** And the “onset of action compared with available antidepressants” value (Swiss Webster male mice [4]; acute i.p. administration)?
**A.** significantly faster onset of action

**Q.** What about the “effect in repeated open-space swim test” value (Swiss Webster male mice [4]; acute i.p., dp6FNE 1, 3, 10 mg/kg with prazosin 0.2 mg/kg, DMI 10 mg/kg, FIG. 5) of the same molecule?
**A.** significant antidepressant action

**Q.** What about the immobility versus vehicle (Swiss Webster male mice [4]; dp6FNE 0.3 mg/kg with prazosin 0.2 mg/kg, animals not pretreated with either antagonist) of the same molecule?
**A.** significantly reduced immobility versus vehicle

**Q.** And the “distance swum versus vehicle” value (Swiss Webster male mice [4]; dp6FNE 0.3 mg/kg with prazosin 0.2 mg/kg, animals not treated with either antagonist)?
**A.** significantly increased distances swum

**Q.** And the “speed or efficacy compared with partial α1-agonists” value (Swiss Webster male mice [4]; i.p. 0, 1, 3, 10 mg/kg with phentolamine 1 mg/kg, 30 min before swim, Example 5, expected)?
**A.** more rapid or efficacious than the partial α1-agonists

**Q.** What does the source list for `COc1cc2nc(N3CCN(C(=O)c4ccco4)CC3)nc(N)c2cc1OC` [prazosin]?
**A.** block of cortical α1-adrenoceptors by ex vivo binding [14]: 30%; overall effect of antagonist pretreatment on distance swum (Swiss Webster male mice [4]): significant overall decrease of distance swum; overall effect of antagonist pretreatment on immobility (Swiss Webster male mice [4]): significant overall increase of immobility; effect of antagonist alone on TST or RFS measures (Swiss Webster male mice [4]; prazosin alone 0.2 mg/kg): did not affect these measures

**Q.** With `COc1cc2nc(N3CCN(C(=O)C4CCCO4)CC3)nc(N)c2cc1OC` (stereo not drawn) [terazosin] as the molecule, how does the Cage midline crosses (LC α1-adrenoceptors; [16]) read?
**A.** 16.4 ± 1.5^c

**Q.** What about the “Time immobile (min)” value (LC α1-adrenoceptors; [16]) of the same molecule?
**A.** 2.2 ± 0.5^c min

**Q.** What about the Gross movements (LC α1-adrenoceptors; [16]) of the same molecule?
**A.** 123.5 ± 7.9^c

**Q.** And the Cage midline crosses (LC α1-adrenoceptors; [17])?
**A.** 9.2 ± 2.0^b,e

**Q.** And the “Time immobile (min)” value (LC α1-adrenoceptors; [17])?
**A.** 7.2 ± 1.6^b,d min

**Q.** What about the Gross movements (LC α1-adrenoceptors; [17]) of the same molecule?
**A.** 71.7 ± 11.7^a,d

**Q.** And the “TI-” value (LC α1-adrenoceptors; bilaterally injected animals)?
**A.** 7.4 ± 1.4 min

**Q.** What about the “percent decrease of GMs with respect to vehicle” value (LC α1-adrenoceptors; bilaterally injected animals) of the same molecule?
**A.** 54.6±9.1%

**Q.** And the “percent decrease of cage Xs with respect to vehicle” value (LC α1-adrenoceptors; bilaterally injected animals)?
**A.** 53.7±12.1%

**Q.** What about the “percent depression of GMs compared to mean of the vehicle group” value (“percent depression of GMs” for short) (LC α1-adrenoceptors; direct hits of LC) of the same molecule?
**A.** 63.5±7.2%

**Q.** What about the “increase of TI” value (LC α1-adrenoceptors; [18]) of the same molecule?
**A.** 77 fold

**Q.** And the “reduction of GMs” value (LC α1-adrenoceptors; [18])?
**A.** 54%

**Q.** What about the “reduction of cage Xs” value (LC α1-adrenoceptors; [18]) of the same molecule?
**A.** 55%

**Q.** And the “percent depression of GMs” value (LC α1-adrenoceptors; injection within 200μ of LC)?
**A.** 54.0±7.5%

**Q.** And the “percent depression of GMs” value (LC α1-adrenoceptors; injection within 500μ of LC)?
**A.** 45.6±7.0%

**Q.** And the “TI-” value (LC α1-adrenoceptors; unilaterally injected animals)?
**A.** 6.1 ± 1.7 min

**Q.** And the “percent decrease of GMs with respect to vehicle” value (LC α1-adrenoceptors; unilaterally injected animals)?
**A.** 50.5±11.1%

**Q.** What about the “percent decrease of cage Xs with respect to vehicle” value (LC α1-adrenoceptors; unilaterally injected animals) of the same molecule?
**A.** 52.1±16.5%

**Q.** What about the “effect of coinfused antagonist on anti-immobility effect of 6FNE” value (Swiss Webster male mice [1]) of the same molecule?
**A.** significantly increased immobility when coinfused with 6FNE

**Q.** And the “effect of antagonist alone on immobility (antagonist+vehicle versus vehicle-only)” value (Swiss Webster male mice [1])?
**A.** significantly increased immobility in the vehicle-treated animals

**Q.** What about the “neural activity of the LC measured from c-Fos expression” value [15] of the same molecule?
**A.** excitation of virtually every neuron of the nucleus

**Q.** And the “affinity for respective receptor” value (α1-adrenoceptors)?
**A.** low nanomolar affinities
